# Measurements reported in US11896704B2, “Compounds useful for the treatment and/or care of the skin, hair, nails and/or mucous membranes” (LUBRIZOL ADVANCED MATERIALS, INC., priority 2017, dated 2024).
# The star is where a group is joined. Palmitoyl = CCCCCCCCCCCCCCCC(=O)*; NHhexadecyl = CCCCCCCCCCCCCCCCN*; NHHex = CCCCCCN*
# Experiments:
# Assay type in all cases: cell-based
# [1] = tested on: Human Dermal Fibroblasts (HDFa); assay: Reactive oxygen species (ROS) levels in HDFa, fluorescence; conditions: 0.05 mM, 30 min, positive control
# Procedure: Evaluation of Reactive Oxygen Species (ROS) Levels on Human Dermal Fibroblasts (HDFa) by a Fluorescence Approach. Human Dermal Fibroblasts from adult (HDFa, Life Technologies) are seeded at a density of 10,000 cells/well (3 wells per condition) in 96-well plates in culture medium M106 with Low Serum Growth Supplement (LSGS, Life Technologies). Cells are grown during 24 hours at 37° C. in 5% CO2 humidified air. Then, medium is removed and cells are treated with the peptide […] (PEP-1, H-[SEQ ID. NO. 2]-NH2) during 16 hours at 37° C. in 5% CO2 humidified air. Non-treated cells incubated in treatment medium alone are used as basal conditions. […] After 30 min at 37° C. in 5% CO2 humidified air, cells are used to quantify ROS levels. ROS levels are quantified using a Cellular Reactive Oxygen Species Detection Assay Kit (Abcam) according to the manufacture's protocol. […] After the period of time, fluorescence signal is determined using Operetta® confocal microscope (PerkinElmer, Inc). Fluorescence intensities are measured using Mitotracker OrangeTM channel (Excitation Filter: 520-550 nm/Emission Filter: 560-630 nm) and are corrected by the determination of the number of nuclei per well. […]
# [2] = tested on: mitochondrial complex I (NADH dehydrogenase); assay: Mitochondrial complex I activity in human dermal fibroblasts, colorimetric assay; conditions: HDFa, 10 mM, 48 hours, positive control
# Procedure: Inhibition of Mitochondrial Complex I Activity Using an Assay Based on Colorimetric Detection. Human Dermal Fibroblasts from adult (HDFa, Life Technologies) are seeded at a density of 750.000 cells/75 cm^2 flask (one flask per condition) in culture medium M106 with Low Serum Growth Supplement (Life Technologies). Cells are grown during 8 days at 37° C. in 5% CO2 humidified air. Then, medium is removed and cells are treated with scalar dilutions of the peptide […] (PEP-1, H-[SEQ ID. NO. 2]-NH2) at 1, 0.5 and 0.1 mg/ml in culture medium during 48 hours at 37° C. in 5% CO2 humidified air. Non-treated cells incubated in culture medium alone are used as basal conditions. […] After 48 hours of treatment, cells are detached using trypsin and resuspended in 60 ul of Phosphate buffer saline (Sigma). Total protein concentration is measured by a Pierce BCA Protein Assay Kit (BCA Assay, Thermo Scientific) following manufacturer's protocol to adjust the final protein concentration between 700-1000 ug/ml. Briefly, standards and samples are dispensed and Working Reagent is added to the samples. After 30 minutes of incubation at 37° C., absorbance is measured with a microplate reader (Clariostar®, BMG) at 562 nm. Mitochondrial complex I activity is measured with Complex I enzyme activity microplate assay Kit (Abcam) according to the manufacture's protocol. This assay follows the oxidation of NADH to NAD coupled to the reduction of a specific colorimetric dye, leading to an increase in absorbance at 450 nm. In brief, 200 ul of each sample (adjusted to 700-1000 ug/ml of total protein amount) is incubated for 3 hours. After that, wells are washed several times and incubated with Assay Solution provided with the kit (composed by NADH and the specific dye). For the determination of mitochondrial complex I activity, colorimetric increase of Optical Density (OD) at 450 nm in a kinetic reaction along 1 hour is measured with a microplate reader (Clariostar©, BMG). Results are calculated as the rate of increase in OD at 450 nm between two points in the linear zone over time. The percentage of mitochondrial complex I activity relative to basal conditions after the treatment with […] (PEP-1, H-[SEQ ID. NO. 2]-NH2) is represented in Table 9. These values represent the mean for at least three independent assays.
# JARID1A gene = JARID1A gene expression in synchronized human epidermal keratinocytes (HEKa), real time PCR arrays; conditions: one experiment
# Procedure: In Vitro Study of JARID1A Gene Expression in Synchronized Human Epidermal Keratinocytes from Adult (HEKa) Using Real Time PCR Arrays.
# HEKa cells (Life Technologies) are seeded at 3.0×10^5 cells/well in 12-well plates (2 wells per condition) and incubated in culture medium, Keratinocyte growth medium supplemented with Mix C39016-CaCl2 solution (Promocell). For synchronization, cells were subjected to two alternative cycles of 12 hours each at 37° C. in 5% CO2 humidified air (day mode) and 33° C. in 5% CO2 humidified air (night mode). 12 hours after starting synchronization, cells are incubated with the peptides at 0.5 mg/ml or (5 μg/ml) in culture medium, depending on the toxicity effects of each peptide (non-toxic conditions are selected). Cells treated with medium alone are used as basal condition.
# At the end of synchronization, cell lysates are collected at two different times: 7:30 hour (early morning point) and 11:30 hour (midday point). Briefly, cells are lysed directly in the wells, and RNA is purified following the protocol described on the RNeasy™ Mini kit (Qiagen) according to the manufacture's protocol. After RNA elution, quantification and analysis of purity of RNA samples are performed with a nanodrop (Thermo). For each sample, 3 μg of high quality RNA is retrotranscribed with iScript Advanced™ (BioRad) in a final volume of 20 μl. Complete reaction mix is incubated in a thermal cycler (Eppendorf) at 42° C. for 30 minutes, and the reaction is stopped at 85° C. for 5 minutes. Complementary DNA is amplified by qPCR in a real-time PCR thermocycler (BioRad) using SYBR Green Supermix™ (BioRad) in the 96-well plate for use with SYBR® Green (BioRad). SYBR Green binds to double-stranded DNA molecules and emits fluorescence which is quantified, and the fluorescence intensity is proportional to the amount of the product in the PCR reaction. Cycling conditions in BioRad CFX96™ instrument are: 95° C. for 3 minutes, followed by 40 cycles of denaturing at 95° C. for 5 seconds, annealing and elongation at 60° C. for 30 seconds. GAPDH (Glyceraldehyde 3-phosphate dehydrogenase), TBP (TATA box binding protein) and HRPT1 (hypoxanthine phosphoribosyltransferase 1) are used as endogenous controls. Fold change relative to the expression of the sample genes and reference genes is calculated using normalized expression (AA(Ct)) method using CFX Manager Software™ (BioRad).
# Fold induction of JARID1A gene at 7:30 hour with respect to basal conditions at 7:30 hour for the samples tested are shown in Table 7. The data for fold induction represent the value of one experiment.
Molecule,Fold induction with respect to Basal condition at 7:30h (%) (JARID1A gene; 0.5 mg/ml),further results
"OO [Hydrogen peroxide, Hydrogen Peroxide]",–,Percentage of ROS level relative to basal control conditions (%) [1]: 1309.23%
"CN(C)C(=N)N=C(N)N [Metformin, reference compound]",–,Percentage of mitochondrial complex I activity relative to basal condition (%) [2]: 63.61%
Ac-Phe-Trp-Met-Lys-Arg-Lys-Arg-Val-Pro-NH2 (Ac-FWMKRKRVP-NH2) [PEP-3],126.63,–
Ac-Phe-Trp-Met-Lys-Arg-Lys-Arg-Val-Pro-OH (Ac-FWMKRKRVP-OH) [PEP-6],109.08,–
H-Phe-Trp-Ile-Gln-Arg-Lys-His-Met-Pro-NH2 (H-FWIQRKHMP-NH2) [PEP-10],138.09,–
H-Phe-Trp-Leu-Arg-Arg-Lys-Lys-Ile-Pro-NH2 (H-FWLRRKKIP-NH2) [PEP-9],141.90,–
H-Phe-Trp-Leu-Lys-Arg-Lys-Arg-Val-Pro-NH2 (H-FWLKRKRVP-NH2) [PEP-11],127.91,–
H-Phe-Trp-Met-Arg-Arg-Lys-Arg-Val-Pro-NH2 (H-FWMRRKRVP-NH2) [PEP-12],203.75,–
H-Phe-Trp-Met-Lys-Arg-Lys-Arg-Ile-Pro-NH2 (H-FWMKRKRIP-NH2) [PEP-14],187.65,–
H-Phe-Trp-Met-Lys-Arg-Lys-Arg-Leu-Pro-NH2 (H-FWMKRKRLP-NH2) [PEP-15],123.90,–
H-Phe-Trp-Met-Lys-Arg-Lys-Arg-Val-Pro-NHC6H13 (H-FWMKRKRVP-NHHex; SMILES CCCCCCNC(=O)[C@@H]1CCCN1C(=O)[C@@H](NC(=O)[C@H](CCCNC(=N)N)NC(=O)[C@H](CCCCN)NC(=O)[C@H](CCCNC(=N)N)NC(=O)[C@H](CCCCN)NC(=O)[C@H](CCSC)NC(=O)[C@H](Cc1c[nH]c2ccccc12)NC(=O)[C@@H](N)Cc1ccccc1)C(C)C) [PEP-7],159.64,–
H-Phe-Trp-Met-Lys-Arg-Lys-Arg-Val-Pro-NHC16H33 (H-FWMKRKRVP-NHhexadecyl; SMILES CCCCCCCCCCCCCCCCNC(=O)[C@@H]1CCCN1C(=O)[C@@H](NC(=O)[C@H](CCCNC(=N)N)NC(=O)[C@H](CCCCN)NC(=O)[C@H](CCCNC(=N)N)NC(=O)[C@H](CCCCN)NC(=O)[C@H](CCSC)NC(=O)[C@H](Cc1c[nH]c2ccccc12)NC(=O)[C@@H](N)Cc1ccccc1)C(C)C) [PEP-8],113.64,–
H-Phe-Trp-Met-Lys-Arg-Lys-Arg-Val-Pro-OH (H-FWMKRKRVP-OH) [PEP-4],158.92,–
H-Phe-Trp-Met-Lys-Arg-Lys-Lys-Val-Pro-NH2 (H-FWMKRKKVP-NH2) [PEP-13],147.62,–
Palm-Phe-Trp-Met-Lys-Arg-Lys-Arg-Val-Pro-NH2 (Palmitoyl-FWMKRKRVP-NH2; SMILES CCCCCCCCCCCCCCCC(=O)N[C@@H](Cc1ccccc1)C(=O)N[C@@H](Cc1c[nH]c2ccccc12)C(=O)N[C@@H](CCSC)C(=O)N[C@@H](CCCCN)C(=O)N[C@@H](CCCNC(=N)N)C(=O)N[C@@H](CCCCN)C(=O)N[C@@H](CCCNC(=N)N)C(=O)N[C@H](C(=O)N1CCC[C@H]1C(N)=O)C(C)C) [PEP-2],–,Fold induction with respect to Basal condition at 7:30h (%) (JARID1A gene; 0.005 mg/ml): 122.22%
Palm-Phe-Trp-Met-Lys-Arg-Lys-Arg-Val-Pro-OH (Palmitoyl-FWMKRKRVP-OH; SMILES CCCCCCCCCCCCCCCC(=O)N[C@@H](Cc1ccccc1)C(=O)N[C@@H](Cc1c[nH]c2ccccc12)C(=O)N[C@@H](CCSC)C(=O)N[C@@H](CCCCN)C(=O)N[C@@H](CCCNC(=N)N)C(=O)N[C@@H](CCCCN)C(=O)N[C@@H](CCCNC(=N)N)C(=O)N[C@H](C(=O)N1CCC[C@H]1C(=O)O)C(C)C) [PEP-5],–,Fold induction with respect to Basal condition at 7:30h (%) (JARID1A gene; 0.005 mg/ml): 121.55%
